The values below come from ChEMBL document CHEMBL1149425, “A novel class of sodium/calcium exchanger inhibitors: design, synthesis, and structure-activity relationships of 4-phenyl-3-(piperidin-4-yl)-3,4-dihydro-2(1H)-quinazolinone derivatives” (Bioorg Med Chem Lett, 2006).

Peptide text beside a SMILES is read from it.

Chain of Sodium/calcium exchanger 1 (Cavia porcellus) (P48766 whole entry, looked up): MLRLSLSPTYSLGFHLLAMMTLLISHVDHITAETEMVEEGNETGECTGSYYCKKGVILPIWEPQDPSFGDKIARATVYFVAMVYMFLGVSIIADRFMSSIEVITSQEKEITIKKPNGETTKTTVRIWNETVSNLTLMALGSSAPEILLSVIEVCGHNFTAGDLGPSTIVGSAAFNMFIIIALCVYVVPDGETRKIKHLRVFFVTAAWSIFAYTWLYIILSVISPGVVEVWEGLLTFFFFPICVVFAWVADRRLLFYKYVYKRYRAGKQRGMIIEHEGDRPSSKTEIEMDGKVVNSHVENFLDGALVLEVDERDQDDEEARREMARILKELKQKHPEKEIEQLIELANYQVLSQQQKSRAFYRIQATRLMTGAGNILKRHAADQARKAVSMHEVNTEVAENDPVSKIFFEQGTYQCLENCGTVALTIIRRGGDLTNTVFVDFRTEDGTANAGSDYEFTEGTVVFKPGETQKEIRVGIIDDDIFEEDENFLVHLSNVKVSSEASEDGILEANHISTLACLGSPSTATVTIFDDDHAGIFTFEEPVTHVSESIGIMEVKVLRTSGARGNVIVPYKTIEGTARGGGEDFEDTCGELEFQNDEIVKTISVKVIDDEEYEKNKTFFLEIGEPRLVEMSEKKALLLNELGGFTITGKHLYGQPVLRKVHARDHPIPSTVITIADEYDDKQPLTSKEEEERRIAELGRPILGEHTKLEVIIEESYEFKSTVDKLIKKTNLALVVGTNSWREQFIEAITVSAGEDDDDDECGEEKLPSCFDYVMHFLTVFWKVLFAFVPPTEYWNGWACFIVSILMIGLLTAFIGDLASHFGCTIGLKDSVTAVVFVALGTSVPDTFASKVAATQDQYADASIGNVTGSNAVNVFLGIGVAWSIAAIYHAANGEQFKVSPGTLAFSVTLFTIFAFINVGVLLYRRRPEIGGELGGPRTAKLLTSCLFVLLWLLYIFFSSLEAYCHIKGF

This test addresses Sodium/calcium exchanger 1 (Cavia porcellus) (UniProt P48766). Nature of the test: Inhibitory activity against Sodium/Calcium exchanger in isolated guinea pig left atria.
Regarding `COc1ccc(CN2CCC(N3C(=O)Nc4ccccc4C3c3ccccc3)CC2)cc1` (stereo not given), the IC30 came to 250 nM.

`COc1cc(CN2CCC(N3C(=O)Nc4ccccc4C3c3ccccc3)CC2)cc(OC)c1OC` (stereo not given): the IC30 is over 10000 nM.

As to `O=C1Nc2ccccc2C(c2ccccc2)N1C1CCN(Cc2ccccn2)CC1` (stereo not given), the IC30 was found to be 390 nM.

Consider `O=C1Nc2ccccc2C(c2ccccc2)N1C1CCN(Cc2cccc(Cl)c2)CC1` (stereo not given), for which the IC30 worked out at 540 nM.

On to `O=C1Nc2ccccc2C(c2ccccc2)N1C1CCN(Cc2ccco2)CC1` (stereo not given), for which the IC30 was 8300 nM.

With `O=C1Nc2ccccc2C(c2ccccc2)N1C1CCN(Cc2ccccc2)CC1` (stereo not given), the IC30 was 17 nM.

On to `O=C1Nc2ccccc2C(c2ccccc2)N1C1CCN(Cc2ccsc2)CC1` (stereo not given), for which the IC30 is 3900 nM.

For `O=C1Nc2ccccc2C(c2ccccc2)N1C1CCN(Cc2cccnc2)CC1` (stereo not given), the IC30 came to 160 nM.

Turning to `O=C1Nc2ccccc2C(c2ccccc2)N1C1CCN(Cc2ccccc2Cl)CC1` (stereo not given), the IC30 was 9000 nM.

As to `O=C1Nc2ccccc2C(c2ccccc2)N1C1CCN(Cc2cccs2)CC1` (stereo not given), the IC30 was 1700 nM.

As for `Cc1cccc(CN2CCC(N3C(=O)Nc4ccccc4C3c3ccccc3)CC2)c1` (stereo not given), the IC30 worked out at 560 nM.

Consider `COc1ccccc1CN1CCC(N2C(=O)Nc3ccccc3C2c2ccccc2)CC1` (stereo not given), for which the IC30 was over 10000 nM.

With `COc1cc(CN2CCC(N3C(=O)Nc4ccccc4C3c3ccccc3)CC2)cc(OC)c1` (stereo not given), the IC30 is over 10000 nM.

For the molecule `O=C1Nc2ccccc2C(c2ccccc2)N1C1CCN(Cc2ccc(Cl)cc2)CC1` (stereo not given), the IC30 worked out at 620 nM.

As for `COc1cccc(CN2CCC(N3C(=O)Nc4ccccc4C3c3ccccc3)CC2)c1` (stereo not given), the IC30 was found to be 8.4 nM.

On to `COCc1cccc(CN2CCC(N3C(=O)Nc4ccccc4C3c3ccccc3)CC2)c1` (stereo not given), for which the IC30 was determined as 490 nM.

As to `O=C1Nc2ccccc2C(c2ccccc2)N1C1CCN(Cc2ccoc2)CC1` (stereo not given), the IC30 was found to be 17 nM.

Take `O=C1Nc2ccccc2C(c2ccccc2)N1C1CCN(Cc2ccncc2)CC1` (stereo not given): the IC30 came to 480 nM.

For the molecule `CCOc1cccc(CN2CCC(N3C(=O)Nc4ccccc4C3c3ccccc3)CC2)c1` (stereo not given), the IC30 was 580 nM.

As to `CSCC[C@H](NC(=O)[C@@H](N)C(C)C)C(=O)N[C@@H](CCCN=C(N)N)C(=O)N[C@@H](Cc1ccccc1)C(N)=O` (H-VMRF-NH2), the IC30 is 10000 nM.

One may read the IC30 as the point of the concentration-response curve where the effect stands at 30%.
